What all share (assay): NCI anticancer screen, dose series, 48 h
The test system of assay [1] is HOP-92 NSCLC.
For assay [2], the system named is A498 renal.
Assay [3] concerns SNB-19 CNS.
The subject of assay [4] is HCT-116 colon.
The test system of assay [5] is SNB-75 CNS.
In assay [6] the test system is A549 NSCLC.
Assay [7] concerns OVCAR-5 ovarian.
For assay [8], the system named is SN12C renal.
Assay [9] has as its system NCI-H460 lung.
Assay [10] relates to OVCAR-4 ovarian.
Assay [11] has as its system NCI-H23 lung.
Assay [12] deals with SR leukemia.
For assay [13], the system named is SF-539 CNS.
The test system of assay [14] is NCI-H522 lung.
The test system of assay [15] is SW-620 colon.
Assay [16] deals with OVCAR-3 ovarian.
The test system of assay [17] is SK-MEL-2 melanoma.
Assay [18] deals with HT29 colon.
Assay [19] relates to RPMI-8226 leukemia.

Each structure is given as a SMILES string.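 Protocol summary: plate cells (96-well), add compound at 5 concentrations, incubate 48 h, interpolate endpoints linearly. At the TGI there is no net growth.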

In the case of `CC1(C)COC(c2cccnc2/C=N/O)=N1`, the TGI in [1], in [2], in assay [3], in [4], in assay [5] and in assay [6] was more than 100 µM in each case. Also, the TGI in assay [7], in assay [8], in assay [9], in [10], in assay [11] and in assay [12] was more than 100 µM throughout. Moreover, the TGI in [13], in assay [14], in [15], in assay [16], in [17] and in assay [18] was more than 100 µM in each case.
Turning to `CC(=O)O[C@H]1C[C@H]2[C@@H](OC(C)=O)/C=C3\C[C@](C)(C(=O)[C@H](O)C(=C1C)C2(C)C)[C@@H](O)C[C@@H]3OC(=O)[C@H](O)[C@H](c1ccccc1)N(C)C`, the TGI in assay [1], in [2], in [3], in assay [4], in assay [5] and in [6] was more than 100 µM throughout. Besides, the TGI in [7], in [19], in assay [8], in assay [9], in [10] and in assay [11] was more than 100 µM throughout. Also, the TGI in assay [12], in [13], in [14], in assay [15] and in assay [16] was more than 100 µM throughout.
In the case of `COc1cc(/C=C2\C[C@H]3[C@@H]4CCc5cc(O)ccc5[C@H]4CC[C@]3(C)C2=O)cc(OC)c1OC`, the TGI in assay [2] was determined as 87.5 µM; in [3], 47.1 µM; in assay [4], 28.6 µM; in assay [5], 26.4 µM; in assay [6], 31.8 µM; in [7], 38.6 µM. For the same compound, the TGI in [19] was 28.9 µM; in assay [8], 39.5 µM; in assay [9] it was more than 100 µM; in assay [10], 72.8 µM; in assay [11] it was 28.5 µM; in assay [12], 10.7 µM. Moreover, the TGI was 90.5 µM in assay [13]; 3.95 µM in assay [14]; 34.1 µM in [15]; 26.9 µM in [16]; 31.9 µM in assay [17]; 25 µM in [18].
`O=Cc1cn(CCCCCCCCCCCCn2cc(C=O)c3ccccc32)c2ccccc12`: the TGI in assay [1], in assay [2], in assay [3], in [4], in assay [6] and in [7] was more than 100 µM each time. For the same compound, the TGI in [8], in assay [11], in [12], in [13], in [14] and in assay [15] was more than 100 µM throughout. For the same compound, the TGI in assay [16], in [17] and in assay [18] was more than 100 µM in each case.
Consider `COC(=O)c1ccc(C(=O)NC(Cc2ccc(Oc3cc(CC(NC(=O)c4ccccc4C(=O)OC)C(=O)OC)ccc3OC)cc2)C(=O)OC)cc1` (stereo not given), for which the TGI in assay [1], in assay [2], in assay [3], in assay [4], in [5] and in assay [6] was more than 100 µM throughout. Besides, the TGI in assay [7], in assay [19], in [8], in [9], in [10] and in assay [11] was more than 100 µM in each case. For the same compound, the TGI in assay [12], in assay [13], in [15], in assay [16], in [17] and in [18] was more than 100 µM throughout.
Turning to `CC(C)(C)OC(=O)N1CCc2[nH][nH]c(=O)c2C1`, the TGI in [1], in assay [2], in assay [3], in assay [4], in assay [6] and in assay [19] was more than 100 µM throughout. Further, the TGI in assay [8], in [9], in [10], in [11], in assay [12] and in [13] was more than 100 µM each time. The TGI in assay [14], in assay [15], in assay [16] and in [18] was more than 100 µM each time.
Take `O=C1C2CC=CCC2C(=O)N1n1c(Cc2ccc(Cl)cc2)n[nH]c1=O` (stereo not given): the TGI in assay [1], in [2], in assay [4], in [5], in assay [6] and in assay [7] was more than 100 µM in each case. For the same compound, the TGI in assay [19], in assay [8], in [10], in assay [11], in assay [12] and in assay [14] was more than 100 µM throughout. Besides, the TGI in [15], in assay [16], in assay [17] and in assay [18] was more than 100 µM in each case.
Take `O=c1cnn(C/C=C/CBr)c(=O)[nH]1`: the TGI in assay [1] worked out at 28.7 µM; in assay [2] it was 31.7 µM; in assay [3], 79.7 µM; in [5], 33.4 µM; in [6], 33.9 µM; in assay [7], 31.2 µM. The TGI amounted to 49.5 µM in [19]; 41.6 µM in assay [8]; 36.5 µM in [9]; 48 µM in assay [10]; 42.8 µM in assay [12]; 31.6 µM in assay [13]. The TGI worked out at 22.9 µM in assay [14]; 28.8 µM in assay [15]; 64.2 µM in [16]; 42.2 µM in assay [17]; 29.2 µM in [18].

The values above are taken from PubChem BioAssay (NCI).
